# Measurements: US8192962B2, “Processes for detecting toxic substances” (Daikin Industries, Ltd., priority 2001, dated 2012)
# Test system: Metabolism protein genes
# Assay: DNA chip mRNA expression in yeast, metabolism protein genes (Table 7)
# Format: cell-based, Saccharomyces cerevisiae S288C
# Outline: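 Ratios compare mRNA levels in stressed and control S. cerevisiae. Each toxicant was applied for two hours to log-phase cultures at 25° C. at a sub-lethal, growth-inhibiting level; fluorescent cDNA (Cy3- or Cy5-dUTP) was hybridized to a genome-wide yeast chip for over 12 h at 65° C.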
substance,measurement,setting,value
Na2As [(1)],The level of expressed mRNA in the presence of chemical substance/The level of expressed mRNA in the absence of chemical substance,yeast gene YJR155W,10.6
same,The level of expressed mRNA in the presence of chemical substance/The level of expressed mRNA in the absence of chemical substance,yeast gene YKL035W,1.0
same,level of expressed mRNA in the presence/in the absence of chemical substance,yeast gene YKL060C,1.6
same,The level of expressed mRNA in the presence of chemical substance/The level of expressed mRNA in the absence of chemical substance,yeast gene YKL091C,1.2
same,The level of expressed mRNA in the presence of chemical substance/The level of expressed mRNA in the absence of chemical substance,yeast gene YKL104C,1.0
same,level of expressed mRNA in the presence/in the absence of chemical substance,yeast gene YKL148C,0.9
same,The level of expressed mRNA in the presence of chemical substance/The level of expressed mRNA in the absence of chemical substance,yeast gene YKL152C,1.3
same,level of expressed mRNA in the presence/in the absence of chemical substance,yeast gene YKL157W,0.7
same,The level of expressed mRNA in the presence of chemical substance/The level of expressed mRNA in the absence of chemical substance,yeast gene YKL213C,0.9
same,The level of expressed mRNA in the presence of chemical substance/The level of expressed mRNA in the absence of chemical substance,yeast gene YKL215C,0.6
same,level of expressed mRNA in the presence/in the absence of chemical substance,yeast gene YKR034W,0.9
same,The level of expressed mRNA in the presence of chemical substance/The level of expressed mRNA in the absence of chemical substance,yeast gene YLL058W,1.0
same,level of expressed mRNA in the presence/in the absence of chemical substance,yeast gene YLR006C,0.7
same,level of expressed mRNA in the presence/in the absence of chemical substance,yeast gene YLR044C,0.8
same,level of expressed mRNA in the presence/in the absence of chemical substance,yeast gene YLR056W,1.0
same,level of expressed mRNA in the presence/in the absence of chemical substance,yeast gene YLR058C,0.9
same,level of expressed mRNA in the presence/in the absence of chemical substance,yeast gene YLR081W,1.3
same,level of expressed mRNA in the presence/in the absence of chemical substance,yeast gene YLR089C,0.9
same,The level of expressed mRNA in the presence of chemical substance/The level of expressed mRNA in the absence of chemical substance,yeast gene YLR180W,1.3
same,The level of expressed mRNA in the presence of chemical substance/The level of expressed mRNA in the absence of chemical substance,yeast gene YLR273C,1.4
same,level of expressed mRNA in the presence/in the absence of chemical substance,yeast gene YLR284C,0.9
same,The level of expressed mRNA in the presence of chemical substance/The level of expressed mRNA in the absence of chemical substance,yeast gene YLR299W,1.2
same,The level of expressed mRNA in the presence of chemical substance/The level of expressed mRNA in the absence of chemical substance,yeast gene YLR300W,0.9
same,level of expressed mRNA in the presence/in the absence of chemical substance,yeast gene YLR304C,0.7
same,The level of expressed mRNA in the presence of chemical substance/The level of expressed mRNA in the absence of chemical substance,yeast gene YLR307W,0.9
same,The level of expressed mRNA in the presence of chemical substance/The level of expressed mRNA in the absence of chemical substance,yeast gene YLR348C,1.1
same,level of expressed mRNA in the presence/in the absence of chemical substance,yeast gene YLR354C,1.1
same,level of expressed mRNA in the presence/in the absence of chemical substance,yeast gene YLR372W,0.7
same,level of expressed mRNA in the presence/in the absence of chemical substance,yeast gene YML022W,0.9
same,The level of expressed mRNA in the presence of chemical substance/The level of expressed mRNA in the absence of chemical substance,yeast gene YML054C,1.5
same,The level of expressed mRNA in the presence of chemical substance/The level of expressed mRNA in the absence of chemical substance,yeast gene YML070W,0.9
same,The level of expressed mRNA in the presence of chemical substance/The level of expressed mRNA in the absence of chemical substance,yeast gene YML100W,0.8
same,The level of expressed mRNA in the presence of chemical substance/The level of expressed mRNA in the absence of chemical substance,yeast gene YMR008C,0.7
same,level of expressed mRNA in the presence/in the absence of chemical substance,yeast gene YMR011W,1.3
same,level of expressed mRNA in the presence/in the absence of chemical substance,yeast gene YMR015C,0.7
same,The level of expressed mRNA in the presence of chemical substance/The level of expressed mRNA in the absence of chemical substance,yeast gene YMR020W,1.3
same,level of expressed mRNA in the presence/in the absence of chemical substance,yeast gene YMR083W,1.4
same,The level of expressed mRNA in the presence of chemical substance/The level of expressed mRNA in the absence of chemical substance,yeast gene YMR105C,1.9
same,The level of expressed mRNA in the presence of chemical substance/The level of expressed mRNA in the absence of chemical substance,yeast gene YMR189W,0.7
same,level of expressed mRNA in the presence/in the absence of chemical substance,yeast gene YMR205C,0.5
same,level of expressed mRNA in the presence/in the absence of chemical substance,yeast gene YMR261C,0.7
same,The level of expressed mRNA in the presence of chemical substance/The level of expressed mRNA in the absence of chemical substance,yeast gene YMR271C,1.6
same,The level of expressed mRNA in the presence of chemical substance/The level of expressed mRNA in the absence of chemical substance,yeast gene YMR296C,0.6
same,level of expressed mRNA in the presence/in the absence of chemical substance,yeast gene YMR323W,0.8
same,The level of expressed mRNA in the presence of chemical substance/The level of expressed mRNA in the absence of chemical substance,yeast gene YNL012W,1.3
same,level of expressed mRNA in the presence/in the absence of chemical substance,yeast gene YNL025C,0.9
same,The level of expressed mRNA in the presence of chemical substance/The level of expressed mRNA in the absence of chemical substance,yeast gene YNL045W,0.8
same,The level of expressed mRNA in the presence of chemical substance/The level of expressed mRNA in the absence of chemical substance,yeast gene YNL104C,1.1
same,The level of expressed mRNA in the presence of chemical substance/The level of expressed mRNA in the absence of chemical substance,yeast gene YNL106C,1.0
same,The level of expressed mRNA in the presence of chemical substance/The level of expressed mRNA in the absence of chemical substance,yeast gene YNL169C,0.7
same,level of expressed mRNA in the presence/in the absence of chemical substance,yeast gene YNL192W,1.1
same,The level of expressed mRNA in the presence of chemical substance/The level of expressed mRNA in the absence of chemical substance,yeast gene YNL231C,1.5
same,The level of expressed mRNA in the presence of chemical substance/The level of expressed mRNA in the absence of chemical substance,yeast gene YNL322C,0.8
same,The level of expressed mRNA in the presence of chemical substance/The level of expressed mRNA in the absence of chemical substance,yeast gene YNL331C,8.6
same,The level of expressed mRNA in the presence of chemical substance/The level of expressed mRNA in the absence of chemical substance,yeast gene YNL332W,1.1
same,The level of expressed mRNA in the presence of chemical substance/The level of expressed mRNA in the absence of chemical substance,yeast gene YNR019W,1.0
same,The level of expressed mRNA in the presence of chemical substance/The level of expressed mRNA in the absence of chemical substance,yeast gene YNR033W,0.6
same,The level of expressed mRNA in the presence of chemical substance/The level of expressed mRNA in the absence of chemical substance,yeast gene YNR059W,1.1
same,The level of expressed mRNA in the presence of chemical substance/The level of expressed mRNA in the absence of chemical substance,yeast gene YOL058W,0.8
same,level of expressed mRNA in the presence/in the absence of chemical substance,yeast gene YOL086C,1.1
same,level of expressed mRNA in the presence/in the absence of chemical substance,yeast gene YOL108C,1.4
same,level of expressed mRNA in the presence/in the absence of chemical substance,yeast gene YOL116W,1.1
same,The level of expressed mRNA in the presence of chemical substance/The level of expressed mRNA in the absence of chemical substance,yeast gene YOL126C,1.0
same,The level of expressed mRNA in the presence of chemical substance/The level of expressed mRNA in the absence of chemical substance,yeast gene YOL153C,1.0
same,level of expressed mRNA in the presence/in the absence of chemical substance,yeast gene YOL156W,1.1
same,The level of expressed mRNA in the presence of chemical substance/The level of expressed mRNA in the absence of chemical substance,yeast gene YOL165C,10.1
same,level of expressed mRNA in the presence/in the absence of chemical substance,yeast gene YOR002W,0.8
same,level of expressed mRNA in the presence/in the absence of chemical substance,yeast gene YOR085W,0.7
same,The level of expressed mRNA in the presence of chemical substance/The level of expressed mRNA in the absence of chemical substance,yeast gene YOR099W,0.8
same,level of expressed mRNA in the presence/in the absence of chemical substance,yeast gene YOR103C,1.1
same,level of expressed mRNA in the presence/in the absence of chemical substance,yeast gene YOR108W,0.8
same,level of expressed mRNA in the presence/in the absence of chemical substance,yeast gene YOR128C,0.9
same,The level of expressed mRNA in the presence of chemical substance/The level of expressed mRNA in the absence of chemical substance,yeast gene YOR130C,0.8
same,level of expressed mRNA in the presence/in the absence of chemical substance,yeast gene YOR142W,1.0
same,level of expressed mRNA in the presence/in the absence of chemical substance,yeast gene YOR176W,0.7
same,level of expressed mRNA in the presence/in the absence of chemical substance,yeast gene YOR178C,1.4
same,level of expressed mRNA in the presence/in the absence of chemical substance,yeast gene YOR251C,1.1
same,The level of expressed mRNA in the presence of chemical substance/The level of expressed mRNA in the absence of chemical substance,yeast gene YOR336W,0.7
same,The level of expressed mRNA in the presence of chemical substance/The level of expressed mRNA in the absence of chemical substance,yeast gene YOR347C,0.9
same,level of expressed mRNA in the presence/in the absence of chemical substance,yeast gene YOR348C,1.1
same,The level of expressed mRNA in the presence of chemical substance/The level of expressed mRNA in the absence of chemical substance,yeast gene YPL017C,1.0
same,level of expressed mRNA in the presence/in the absence of chemical substance,yeast gene YPL028W,0.7
same,level of expressed mRNA in the presence/in the absence of chemical substance,yeast gene YPL057C,1.9
same,level of expressed mRNA in the presence/in the absence of chemical substance,yeast gene YPL135W,0.9
same,level of expressed mRNA in the presence/in the absence of chemical substance,yeast gene YPL148C,1.2
same,The level of expressed mRNA in the presence of chemical substance/The level of expressed mRNA in the absence of chemical substance,yeast gene YPR026W,0.9
same,level of expressed mRNA in the presence/in the absence of chemical substance,yeast gene YPR113W,1.1
same,level of expressed mRNA in the presence/in the absence of chemical substance,yeast gene YPR165W,1.3
same,The level of expressed mRNA in the presence of chemical substance/The level of expressed mRNA in the absence of chemical substance,yeast gene YPR167C,5.3
same,level of expressed mRNA in the presence/in the absence of chemical substance,yeast gene YPR183W,0.9
